Bridge positions count the residues as written; N and C are the ends. Square brackets hold non-standard residues; d marks the D form. Peptide text beside a SMILES is read from it. * marks the point of attachment. ξ: configuration not given here. Phe(4-COOH) = N[C@@H](Cc1ccc(C(=O)O)cc1)C(=O)O; Bip = N[C@@H](Cc1ccc(-c2ccccc2)cc1)C(=O)O; Phe(3-Me) = Cc1cccc(C[C@H](N)C(=O)O)c1; NH(CH2)12COOH = O=C(O)CCCCCCCCCCCCN*; Val(3-OH) = CC(C)(O)[C@H](N)C(=O)O; hArg = N=C(N)NCCCC[C@H](N)C(=O)O; 4Pal = N[C@@H](Cc1ccncc1)C(=O)O; Cha = N[C@@H](CC1CCCCC1)C(=O)O; Thr(3ξ) = CC(O)[C@H](N)C(=O)O; Carboxymethyl = O=C(O)C*; Nle = CCCC[C@H](N)C(=O)O; Orn = NCCC[C@H](N)C(=O)O; Aun = NCCCCCCCCCCC(=O)O; Dab = NCC[C@H](N)C(=O)O; Dap = NC[C@H](N)C(=O)O; AEEA = NCCOCCOCC(=O)O
biological target: T1, PD-1/PD-L1 interaction (PE-labeled human PD-L1-Ig binding to Jurkat cell line over-expressing human PD-1) (Homo sapiens, UniProt Q15116); test: Jurkat-PD-1 Cell Binding High-Content Screening Assay (CBA); format: cell-based; conditions: Jurkat cell line over-expressing human PD-1; PE-labeled PD-L1-Ig 20 nM final; read-out: Jurkat hPD1-PDL1 IC50
T1 construct: expressed in transfected cells; host or cells: Jurkat
Outline: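 Read-out is high-content imaging of cell-bound phycoerythrin-tagged PD-L1-Ig on fixed, Hoechst-counterstained Jurkat cells that over-express human PD-1. Compound exposure lasts 2 h at 37° C before the labeled ligand (20 nM final) is added for a further hour.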

T1 sequence (Q15116 25-288): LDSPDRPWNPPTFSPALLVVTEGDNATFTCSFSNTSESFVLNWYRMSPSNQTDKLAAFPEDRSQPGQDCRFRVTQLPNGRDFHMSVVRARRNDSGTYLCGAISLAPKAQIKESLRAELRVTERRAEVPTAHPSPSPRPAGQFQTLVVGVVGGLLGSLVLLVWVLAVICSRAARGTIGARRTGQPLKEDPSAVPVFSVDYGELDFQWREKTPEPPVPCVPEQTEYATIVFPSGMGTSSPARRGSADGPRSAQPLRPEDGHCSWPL

| Compound | IC50 |
| --- | --- |
| Cc1cccc(C[C@@H]2NC(=O)[C@H](CC(=O)O)NC(=O)[C@H](Cc3ccc(OCC(=O)O)cc3)NC(=O)[C@H](CN)NC(=O)CSC[C@@H](C(=O)N[C@@H](CCN)C(=O)NCCOCCOCC(=O)NCCCCCCCCCCC(=O)O)NC(=O)[C@H](CCC(=O)O)NC(=O)[C@H](C(C)C)NC(=O)[C@H](CC(C)C)NC(=O)[C@H](CCN)NC(=O)[C@@H](CC(C)C)NC(=O)[C@H](CCCN)NC(=O)[C@H](Cc3ccc(OCC(=O)O)cc3)NC(=O)[C@H](Cc3ccc(-c4ccccc4)cc3)NC(=O)[C@H](Cc3ccc(OCC(=O)O)cc3)NC2=O)c1 [Compound 1257] ({CH2CO}-[Dap]Y(Carboxymethyl)D[Phe(3-Me)]Y(Carboxymethyl)[Bip]Y(Carboxymethyl)[Orn][dL][Dab]LVEC[Dab][AEEA][Aun]-OH; thioether N-14) | 20 nM |
| CC[C@H](C)[C@@H]1NC(=O)[C@H](Cc2ccc(-c3ccccc3)cc2)NC(=O)[C@H](C(C)C)NC(=O)[C@H](Cc2cccc(C)c2)NC(=O)[C@H](CC(=O)O)NC(=O)[C@H](Cc2ccc(C(=O)O)cc2)NC(=O)[C@H](Cc2ccncc2)NC(=O)CSC[C@@H](C(=O)N[C@@H](CC(=O)O)C(=O)NCCCCCCCCCCC(=O)O)NC(=O)[C@H]([C@@H](C)O)NC(=O)[C@H](C(C)C)NC(=O)[C@H](CC2CCCCC2)NC(=O)[C@H](CCN)NC(=O)[C@@H](CC(C)C)NC(=O)[C@H](CCCN)NC1=O [Compound 1043] ({CH2CO}-[4Pal][Phe(4-COOH)]D[Phe(3-Me)]V[Bip]I[Orn][dL][Dab][Cha]VTCD[Aun]-OH; thioether N-14) | 15.6 nM |

Second part, the compound after the results:

| IC50 | Compound |
| --- | --- |
| 5.5 nM | CC(C)C[C@H]1NC(=O)[C@H](CCCN)NC(=O)[C@H](C(C)C)NC(=O)[C@H](Cc2ccc(-c3ccccc3)cc2)NC(=O)[C@H](C(C)C)NC(=O)[C@H](Cc2c[nH]c3ccccc23)NC(=O)[C@H](CC(=O)O)NC(=O)[C@H](Cc2ccc(OCC(=O)O)cc2)NC(=O)[C@H](CCCCNC(=N)N)NC(=O)CSC[C@@H](C(=O)NCC(=O)NCCOCCOCC(=O)N[C@@H](CCCN)C(=O)NCCCCCCCCCCC(=O)O)NC(=O)[C@H](CCCCN)NC(=O)[C@H](C(C)C)NC(=O)[C@H](CC2CCCCC2)NC(=O)[C@H](CCN)NC1=O [Compound 3199] ({CH2CO}-[hArg]Y(Carboxymethyl)DWV[Bip]V[Orn][dL][Dab][Cha]VKCG[AEEA][Orn][Aun]-OH; thioether N-14) |
| 26.2 nM | CCCC[C@@H]1NC(=O)CSC[C@@H](C(=O)N[C@@H](CCN)C(=O)NCCOCCOCC(=O)NCCOCCOCC(=O)NCCCCCCCCCCCCC(=O)O)NC(=O)[C@H](CCC(=O)O)NC(=O)[C@H](C(C)(C)O)NC(=O)[C@H](CC2CCCCC2)NC(=O)[C@H](CCN)NC(=O)[C@@H](CC(C)C)NC(=O)[C@H](CCCN)NC(=O)[C@H](Cc2ccc(C(=O)O)cc2)NC(=O)[C@H](Cc2ccc(-c3ccccc3)cc2)NC(=O)[C@H](Cc2ccc(C(=O)O)cc2)NC(=O)[C@H](Cc2cccc(C)c2)NC(=O)[C@H](CC(=O)O)NC(=O)[C@H](Cc2ccc(OCC(=O)O)cc2)NC1=O [Compound 2892] ({CH2CO}-[Nle]Y(Carboxymethyl)D[Phe(3-Me)][Phe(4-COOH)][Bip][Phe(4-COOH)][Orn][dL][Dab][Cha][Val(3-OH)]EC[Dab][AEEA][AEEA]-{NH(CH2)12COOH}; thioether N-14) |
| 21.1 nM | Cc1cccc(C[C@@H]2NC(=O)[C@H](CC(=O)O)NC(=O)[C@H](Cc3ccc(OCC(=O)O)cc3)NC(=O)[C@H](C(C)O)NC(=O)CSC[C@@H](C(=O)NCCOCCOCC(=O)NCCCCCCCCCCC(=O)O)NC(=O)[C@H](C(C)O)NC(=O)[C@H](C(C)C)NC(=O)[C@H](CC3CCCCC3)NC(=O)[C@H](CCN)NC(=O)[C@@H](CC(C)C)NC(=O)[C@H](CCCN)NC(=O)[C@H](Cc3ccc(OCC(=O)O)cc3)NC(=O)[C@H](Cc3ccc(-c4ccccc4)cc3)NC(=O)[C@H](Cc3ccc(OCC(=O)O)cc3)NC2=O)c1 (stereo partly drawn) [Compound 3478] ({CH2CO}-[Thr(3ξ)]Y(Carboxymethyl)D[Phe(3-Me)]Y(Carboxymethyl)[Bip]Y(Carboxymethyl)[Orn][dL][Dab][Cha]V[Thr(3ξ)]C[AEEA][Aun]-OH; thioether N-14) |
